How the values were obtained:
Assay type in all cases: cell-based
[1] = molecular target: T1, Cx26 (Homo sapiens, UniProt P29033); test: dye uptake rate in Xenopus oocytes; details: transport (dye permeation); resting membrane potential
[2] = molecular target: Cx30 (Homo sapiens, UniProt O95452); test: dye uptake rate in Xenopus oocytes; details: transport (dye permeation); resting membrane potential
[3] = molecular target: Cx26 (Homo sapiens, UniProt P29033, INS2A); test: dye uptake rate in Xenopus oocytes; details: transport (dye permeation); resting membrane potential
[4] = molecular target: T1, Cx26; test: inhibition of DAPI uptake in Xenopus oocytes; details: competitive versus DAPI; resting membrane potential

Sequence of Cx30 (O95452 whole entry): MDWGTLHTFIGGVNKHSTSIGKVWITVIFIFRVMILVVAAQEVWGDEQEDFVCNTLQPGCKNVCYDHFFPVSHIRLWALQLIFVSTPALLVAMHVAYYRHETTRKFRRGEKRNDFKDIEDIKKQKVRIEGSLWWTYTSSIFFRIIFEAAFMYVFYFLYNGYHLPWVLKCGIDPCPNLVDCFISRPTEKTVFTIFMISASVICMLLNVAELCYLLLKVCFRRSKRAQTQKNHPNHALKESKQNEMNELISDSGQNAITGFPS

Substance | Km [1] [µM] | Km [2] [µM] | Km [3] [µM] | Ki [4] [µM]
DAPI | 90.1 ± 22 | – | – | –
ethidium | – | 6.6 ± 2 | 88.6 ± 17.4 | ~16.5
